Test results taken from patent US8076329B2, “Histamine H3-receptor ligands and their therapeutic applications” (Bioprojet, priority 2005, dated 2011).
“And” between values parts separate entries of the source, which are not always exact repeats. Identical values can stand only once. Like-named read-outs stand apart in the source and are kept apart here.

Legend:
CYP3A4 = CYP3A4 (Homo sapiens, UniProt P08684); test: Cytochrome inhibition, fluorometric microtiter plate assay; format: in vitro ADME; conditions: human recombinant CYP3A4, substrate BFC, compounds of the invention
Chain of CYP3A4 (P08684 whole entry, canonical isoform): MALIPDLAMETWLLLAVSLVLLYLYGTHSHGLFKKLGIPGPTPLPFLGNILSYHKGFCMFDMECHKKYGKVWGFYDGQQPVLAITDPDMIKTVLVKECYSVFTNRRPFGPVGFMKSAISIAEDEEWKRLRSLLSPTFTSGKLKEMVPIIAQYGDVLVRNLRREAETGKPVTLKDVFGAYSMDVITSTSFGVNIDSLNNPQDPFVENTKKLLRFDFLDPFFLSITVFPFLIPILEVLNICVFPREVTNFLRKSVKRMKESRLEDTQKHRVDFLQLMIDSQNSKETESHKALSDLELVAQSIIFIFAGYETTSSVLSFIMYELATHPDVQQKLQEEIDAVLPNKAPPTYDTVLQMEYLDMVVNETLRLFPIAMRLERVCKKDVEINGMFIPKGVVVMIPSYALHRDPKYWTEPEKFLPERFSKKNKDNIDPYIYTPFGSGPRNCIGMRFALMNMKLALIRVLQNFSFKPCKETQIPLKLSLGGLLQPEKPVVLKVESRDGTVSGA
Protocol: (§1) The ability of drug in human to inhibit the catalytic activity of cytochrome P-450 isoforms was assayed using microtiter plate-based, fluorometric assays for the activities of the five human major CYP forms. Inhibition potential was determined in vitro after incubation of fluorescent model substrates over various incubation time with human recombinant cytochrome isoforms in the absence or in presence of increasing concentrations of test molecules (from 1 nM to 100 μM), in comparison with specific CYP isoform inhibitors.
(§2) Incubation of drug was carried out at 37° C.±0.5° C. under agitation in the presence of human recombinant cytochrome P-450 isoforms and a NADPH generating system. The incubation conditions for each cytochrome isoform were as follows: […]

CYP2D6 = CYP2D6 (Homo sapiens, UniProt P10635); test: as above; format: in vitro ADME; conditions: human recombinant CYP2D6, substrate AMMC, compounds of the invention
Chain of CYP2D6 (P10635 whole entry): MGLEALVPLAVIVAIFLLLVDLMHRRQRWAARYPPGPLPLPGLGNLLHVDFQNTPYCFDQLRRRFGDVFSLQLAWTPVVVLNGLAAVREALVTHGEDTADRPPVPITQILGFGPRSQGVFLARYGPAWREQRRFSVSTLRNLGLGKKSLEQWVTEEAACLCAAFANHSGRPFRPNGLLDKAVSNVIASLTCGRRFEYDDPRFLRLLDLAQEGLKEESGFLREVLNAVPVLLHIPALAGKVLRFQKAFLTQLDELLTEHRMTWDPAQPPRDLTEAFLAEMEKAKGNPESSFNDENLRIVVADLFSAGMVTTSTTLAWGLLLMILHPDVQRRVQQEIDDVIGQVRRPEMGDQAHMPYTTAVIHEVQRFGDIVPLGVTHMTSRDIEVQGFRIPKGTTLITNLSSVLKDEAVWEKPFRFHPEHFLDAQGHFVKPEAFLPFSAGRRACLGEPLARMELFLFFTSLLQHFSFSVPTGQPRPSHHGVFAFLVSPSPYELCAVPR
Protocol: as §1, §2

[1] = read-out: CYP3A4 cytochrome inhibition (IC50, concentrations in μM for 50% inhibition)
[2] = read-out: CYP2D6 cytochrome inhibition (IC50, concentrations in μM for 50% inhibition)
[3] = CYP3A4 cytochrome inhibition (IC50, concentrations in μM for 50% inhibition)
[4] = CYP2D6 cytochrome inhibition (IC50, concentrations in μM for 50% inhibition)

Molecule	IC50 (CYP3A4; [1])	IC50 (CYP2D6; [2]) [µM]	IC50 (CYP3A4; [3])	IC50 (CYP2D6; [4]) [µM]	IC50 (CYP3A4; human, recombinant human CYP3A4, probe BFC, CYP3A4 cytochrome inhibition (IC50, concentrations in μM for 50% inhibition)) [µM]
1-{3-[4-(cis-4-dimethylaminocyclohex-1-yl)phenoxy]propyl}piperidine, dioxalate and 1-{3-[4-(trans-4-dimethylaminocyclohex-1-yl)phenoxy]propyl}-piperidine, dioxalate [Example 18]	43 µM and 50 µM	> 10	–	–	–
1-{3-[4-(cis-4-morpholinocyclohex-1-yl)phenoxy]propyl}piperidine, dihydrochloride and 1-{3-[4-(trans-4-morpholinocyclohex-1-yl)phenoxy]-propyl}piperidine, dihydro-chloride [Example 40]	66 µM	> 100	–	–	–
CC1CCCN(CCCOc2ccc(C(C)(C)O)cc2)C1 (racemic) [Example 6, (RS)-1-{3-[4-(1-hydroxy-1-methylethyl)phenoxy]propyl}-3-methylpiperidine]	–	–	> 10 µM	> 10	–
CC1CCCN(CCCOc2ccc(-c3ccccc3)cc2)C1 (racemic) [Example 26, (RS)-1-{3-[(biphenyl-4-yl)oxy]propyl}-3-methylpiperidine]	–	–	8 µM	14	–
C[C@H]1C[C@H](C)CN(CCCOc2ccc(C(=O)N3CCCC3)cc2)C1 (relative stereo) [Example 2, trans-1-{3-[4-(N,N-tetramethylenecarbamoyl)phenoxy]propyl}-3,5-dimethylpiperidine]	–	–	> 10 µM	> 10	–
C[C@@H]1C[C@@H](C)CN(CCCOc2ccc(C(C)(C)O)cc2)C1 (relative stereo) [Example 5, trans-1-{3-[4-(1-hydroxy-1-methylethyl)phenoxy]propyl}-3,5-dimethylpiperidine]	–	–	67 µM	> 10	–
C=C(C)c1ccc(OCCCN2C[C@@H](C)C[C@H](C)C2)cc1 (relative stereo) [Example 10, trans-1-{3-(4-isopropenylphenoxy)propyl]-3,5-dimethylpiperidine]	–	–	30 µM	47	–
C[C@@H]1C[C@@H](C)CN(CCCOc2ccc(Oc3ccccc3)cc2)C1 (relative stereo) [Example 14, trans-1-{3-[4-(phenoxy)phenoxy]propyl}-3,5-dimethylpiperidine]	–	–	> 10 µM	> 10	–
C[C@@H]1C[C@@H](C)CN(CCCOc2ccc(C3=NCCCC3)cc2)C1 (relative stereo) [Example 16, trans-6-{4-[3-(3,5-dimethylpiperidino)propoxy]phenyl}-2,3,4,5-tetrahydropyridine]	–	–	22 µM	> 100	–
C[C@@H]1C[C@@H](C)CN(CCCOc2ccc([C@H]3CC[C@@H](N(C)C)CC3)cc2)C1 (relative stereo) [Example 20, trans-1-{3-[4-(cis-4-dimethylaminocyclohex-1-yl)phenoxy]propyl}-3,5-dimethylpiperidine, dioxalate and trans-1-{3-[4-(trans-4-dimethylaminocyclohex-1-yl)-phenoxy]propyl}-3,5-dimethylpiperidine, dioxalate]	–	–	38 µM and 35 µM	> 10	–
C[C@@H]1C[C@@H](C)CN(CCCOc2ccc(-c3ccccc3)cc2)C1 (relative stereo) [Example 22, trans-1-{3-[(biphenyl-4-yl)oxy]propyl}-3,5-dimethylpiperidine]	–	–	3 µM	13	–
Cc1ccc(-c2ccc(OCCCN3C[C@@H](C)C[C@H](C)C3)cc2)cc1 (relative stereo) [Example 27, trans-3,5-dimethyl-1-{3-[(4′-methylbiphenyl-4-yl)oxy]propyl}piperidine]	–	–	> 1 µM	> 10	–
C[C@@H]1C[C@@H](C)CN(CCCOc2ccc(-c3ccncc3)cc2)C1 (relative stereo) [Example 31, trans-3,5-dimethyl-1-{3-[4-(4-pyridyl)phenoxy]propyl}piperidine]	–	–	4 µM	4	–
C[C@H]1C[C@H](C)CN(CCCOc2ccc(-n3cccc3)cc2)C1 (relative stereo) [Example 33, trans-3,5-dimethyl-1-{3-[4-(pyrrol-1-yl)phenoxy]propyl}piperidine]	–	–	7 µM	3	–
C[C@@H]1C[C@@H](C)CN(CCCOc2ccc(-c3cc[nH]n3)cc2)C1 (relative stereo) [Example 34, trans-3,5-dimethyl-1-{3-[4-(pyrazol-3-yl)phenoxy]propyl}piperidine]	–	–	–	20	10
N#CCc1ccc(OCCCN2CCCCC2)cc1 [Example 4]	–	–	> 10 µM	> 10	–
C=CCC(O)(CC=C)c1ccc(OCCCN2CCCCC2)cc1 [Example 9, 1-{3-[4-(1-hydroxy-1-allylbut-3-enyl)phenoxy]propyl}piperidine]	–	–	3 µM	8	–
C(=C\c1ccc(OCCCN2CCCCC2)cc1)/c1ccccc1 [Example 11, trans-1-{3-(4-styrylphenoxy)propyl]piperidine]	–	–	20 µM	5	–
C[C@H]1C[C@H](C)CN(CCCOc2ccc([C@H]3CC[C@H](N(C)C)CC3)cc2)C1 [Example 12, (3S,5S)-1-{3-[4-(trans-4-dimethylaminocyclohex-1-yl)phenoxy]propyl}-3,5-dimethylpiperidine]	–	–	28 µM	> 10	–
c1ccc(COc2ccc(OCCCN3CCCCC3)cc2)cc1 [Example 13, 1-{3-[4-(benzyloxy)phenoxy]propyl}piperidine]	–	–	16 µM	23	–
c1cc([C@H]2CC[C@H](N3CCCC3)CC2)ccc1OCCCN1CCCCC1 [Example 19, 1-{3-[4-(cis-4-tetramethylenaminocyclohex-1-yl)phenoxy]propyl}piperidine, dioxalate and 1-{3-[4-(trans-4-tetramethylenaminocyclohex-1-yl)phenoxy]propyl}-piperidine, dioxalate]	–	–	42 µM and 48 µM	> 10	–
c1ccc(-c2ccc(OCCCN3CCCC3)cc2)cc1 [Example 21, 1-{3-[(biphenyl-4-yl)oxy]propyl}pyrrolidine]	–	–	> 10 µM	> 10	–
C[C@H]1C[C@H](C)CN(CCCOc2ccc(-c3ccccc3)cc2)C1 [Example 23, (3S,5S)-1-{3-[(biphenyl-4-yl)oxy]propyl}-3,5-dimethylpiperidine]	–	–	3 µM	13	–
COc1ccc(-c2ccc(OCCCN3CCCCC3)cc2)cc1 [Example 25, 1-{3-[(4′-methoxybiphenyl-4-yl)oxy]propyl}piperidine]	–	–	> 10 µM	> 10	–
c1cc(-c2ccc(OCCCN3CCCCC3)cc2)ccn1 [Example 30]	–	–	11 µM	7	–
c1cc(-c2ccc(OCCCN3CCOCC3)cc2)ccc1OCCCN1CCCCC1 [Example 36, 4-(3-{[4′-(3-piperidinopropoxy)biphenyl-4-yl]oxy}propyl)morpholine]	–	–	3 µM	> 10	–
c1cc(-c2ccc(OCCCN3CCCC3)cc2)ccc1OCCCN1CCCC1 [Example 38, di-1,1′-{(biphenyl-4,4′-diyl)bis[oxy(propan-1,3-diyl)]}pyrrolidine]	–	–	30 µM	> 10	–
C[C@H]1CCCN(CCCOc2ccc(-c3ccncc3)cc2)C1 [Example 39, (3S)-3-methyl-1-{3-[4-(4-pyridyl)phenoxy]propyl}piperidine]	–	–	11 µM	6	–
C(=C\c1ccc(-c2ccc(OCCCN3CCCCC3)cc2)cc1)/CN1CCCCC1 [Example 44, (E)-1-(3-{[4′-(3-piperidinoprop-1-en-1-yl)biphenyl-4-yl]oxy}propyl)piperidine]	–	–	> 1 µM	> 10	–
